Measurements as given in patent US20220226354A1, “GLP-1 SECRETION-PROMOTING COMPOSITION” (SUNTORY HOLDINGS LIMITED, priority 2019, published 2022).

System: H716
Assay: GLP-1 secretion amount of sweeteners, 24 hours (Experimental Example 1)
Format: cell-based, human
Settings: H716, 24 hours after addition of stock solution, PBS as negative control (no sample)
Protocol: RebA. RebB, RebM. RebN. RebD. RebC, MogV, and stevioside were examined for their GLP-1 secretion-promoting effects. Specifically, the amount of GLP-1 secretion was measured by the following procedures.
Each test substance B, C, D, E, F, G, I, or J was dissolved in PBS (Thermo Fisher Scientific Inc.) (Cat. No. 14190250) to obtain a stock solution. The concentration of the stock solution is shown below:
B (RebA); 5 mM, C (RebB); 1M, D (RebM); 2.5 mM, E (RebN); 1M, F (RebD); 2.5 mM, G (RebC); 2.5 mM, I (MogV); 1M, J(stevioside); 1M
H716 (ATCC) (Cat. No. ATCC®, CCL-251) was cultured in RPMI 1640 (10% FBS (Thermo Fisher Scientific Inc.) (Cat. No. 10439024), 1 mM Sodium Pyruvate) in an incubator at 37° C., 5% CO2.
The preculture was performed for 2 weeks, and the cells were sufficiently recovered, and then cell stocks were prepared.
Cells were seeded in 96-well plates at 2×10^5 cells/90 μL (high) per well (N=4). At this time, the content of FBS in the medium was lowered to 0.5% to suppress cell proliferation.
After 24 hours, the sample at the highest concentration (i.e., stock solution) was added by […] each.
After further 24 hours, quantitation of GLP-1 was performed. Specific procedures were followed the user guide of Human GLP-1 (7-36 amide) Immunoassay kit (Cat. No. AL359) (Lot number 2361115) provided by PerkinElmer, Inc. PBS was used as a negative control (no sample).

Row | Molecule | amount of GLP-1 secretion compared with no sample
1 | C[C@H](CC[C@@H](O[C@@H]1O[C@H](CO[C@@H]2O[C@H](CO)[C@@H](O)[C@H](O)[C@H]2O)[C@@H](O)[C@H](O)[C@H]1O[C@@H]1O[C@H](CO)[C@@H](O)[C@H](O)[C@H]1O)C(C)(C)O)[C@H]1CC[C@@]2(C)[C@@H]3CC=C4[C@@H](CC[C@H](O[C@@H]5O[C@H](CO[C@@H]6O[C@H](CO)[C@@H](O)[C@H](O)[C@H]6O)[C@@H](O)[C@H](O)[C@H]5O)C4(C)C)[C@]3(C)[C@H](O)C[C@]12C [MogV, mogroside V] | significantly larger amounts of GLP-1 secretion than no sample
2 | C=C1C[C@@]23CC[C@H]4[C@@](C)(CCC[C@@]4(C)C(=O)O[C@@H]4O[C@H](CO)[C@@H](O)[C@H](O)[C@H]4O)[C@@H]2CC[C@]1(O[C@@H]1O[C@H](CO)[C@@H](O)[C@H](O[C@@H]2O[C@H](CO)[C@@H](O)[C@H](O)[C@H]2O)[C@H]1O[C@@H]1O[C@H](CO)[C@@H](O)[C@H](O)[C@H]1O)C3 [RebA, Rebaudioside A] | significantly larger amounts of GLP-1 secretion than no sample
3 | C=C1C[C@@]23CC[C@H]4[C@@](C)(CCC[C@@]4(C)C(=O)O[C@@H]4O[C@H](CO)[C@@H](O)[C@H](O)[C@H]4O)[C@@H]2CC[C@]1(O[C@@H]1O[C@H](CO)[C@@H](O)[C@H](O)[C@H]1O[C@@H]1O[C@H](CO)[C@@H](O)[C@H](O)[C@H]1O)C3 [stevioside, Stevioside] | significantly larger amounts of GLP-1 secretion than no sample
4 | rebaudioside B [RebB] | significantly larger amounts of GLP-1 secretion than no sample
5 | rebaudioside C [RebC] | significantly larger amounts of GLP-1 secretion than no sample

System: not listed separately
Assay: Dissolution of sample during sample preparation (Experimental Example 2)
Format: physicochemical
Settings: final concentration of 1.5 mM (#24), 1% DMSO-containing PBS
Protocol: To 20 mg of RebC, 21 μL of DMSO (manufactured by FUJIFILM Wako Pure Chemical Corporation, model number: 037-24053) was added. The mixture was then stirred by vortex and allowed to stand for several hours to obtain a stock solution having a RebC concentration of 1,000 mM. The obtained stock solution and PBS were used to prepare a 10 mM solution.
The 10 mM solution was diluted as needed with 1% DMSO-containing PBS to obtain Sample G-1 mM to Sample G-10 mM. The concentrations of RebC are described in Table 1.

Row | Molecule | dissolution of sample
6 | rebaudioside C [RebC] | not able to be dissolved
